Legend:
[1] = biological target: monomeric HIV-1 CA NL4.3 protein (Human immunodeficiency virus type 1 group M subtype B, UniProt P12493); assay: SPR binding to monomeric HIV-1 CA; conditions: for Residence Time Monomer / koff Monomer: SPR, CA monomer
[2] = biological target: reverse transcriptase (RT) (Human immunodeficiency virus type 1 group M subtype B, UniProt P04585); assay: In vitro reverse transcriptase inhibition assay; assay type: biochemical, HIV-1; conditions: 900 nM
in vitro [3] = assay type: in vitro ADME; conditions: human, plasma
[4] = Cytotoxicity in uninfected MT-4 cells; assay type: cell-based; conditions: human
[5] = human
HIV-1 [6] = assay type: cell-based; conditions: 1 μM compound; DMSO = 100
[7] = biological target: CPSF6 peptide binding to hexameric HIV-1 CA NL4.3 protein (Human immunodeficiency virus type 1, UniProt P12493); assay: SPR-based CPSF6 peptide competition assay; conditions: read-out: IC50 CPSF6 peptide competition, CA hexamer
[8] = system: p24 content of produced pseudoviruses; assay: ELISA-based quantification of capsid; assay type: cell-based, HIV-1; conditions: compound at 10× over EC50
HIV-2 ROD = assay: Anti-HIV-2 activity in MT-4 cells; assay type: cell-based; conditions: for EC50: Human immunodeficiency virus 2, MT4, read-out: EC50 ROD
in vitro [9] = conditions: human, microsomes
HIV-1 CA-NC = HIV-1 CA-NC (Human immunodeficiency virus type 1 group M subtype B, UniProt P12493); assay: FRET-based in vitro CA assembly assay; assay type: biochemical; conditions: 50 μM compound
HIV-1 IIIB = assay: Anti-HIV-1 activity in MT-4 cells; assay type: cell-based; conditions: for fold improvement of anti-HIV-1 potency over 11L / fold improvement of anti-HIV-1 potency over PF74 / SI IIIB (CC50/EC50): HIV-1 IIIB; for fold improvement of anti-HIV-1 potency over 11L / fold improvement of anti-HIV-1 potency over PF74 / Ratio IIIB(EC50)/ROD(EC50) / SI IIIB (CC50/EC50): MT-4 cells; for EC50: Human immunodeficiency virus 1, IIIB, MT4, read-out: EC50 IIIB
[10] = system: hexameric HIV-1 CA NL4.3 protein; assay: SPR binding to disulfide-stabilized hexameric HIV-1 CA
[11] = biological target: hexameric HIV-1 CA NL4.3 protein (Human immunodeficiency virus type 1, UniProt P12493); assay: as above; conditions: for Residence Time Hexamer / koff Hexamer: CA hexamer; for Kd: read-out: KD Hexamer, CA hexamer
[12] = In vivo pharmacokinetic study in SD rats; conditions: Sprague-Dawley, rat
HIV-1 [13] = conditions: read-out: EC50 antiviral activity; MT-4 cells; cited from earlier work
[14] = Metabolic stability in human liver microsomes

In the case of COc1ccc(-n2c([C@H](Cc3cc(F)cc(F)c3)NC(=O)CN3CCN(S(=O)(=O)c4ccc(N)cc4)CC3=O)nc3ccccc3c2=O)cc1 [12a2, (S)-2-(4-((4-Aminophenyl)sulfonyl)-2-oxopiperazin-1-yl)-N-(2-(3,5-difluorophenyl)-1-(3-(4-methoxyphenyl)-4-oxo-3,4-dihydroquinazolin-2-yl)ethyl)acetamide], the Kd [1] is reported as 838 ± 170 nM, the “Residence Time Monomer” value [1] is reported as 0.203 min and the “koff Monomer” value [1] is reported as 0.082 ± 0.011 s⁻¹. The “RT activity compared to RT control” value [2] was “about 80%”, the remaining at 2 h (in vitro [3]) was 110% and the CC50 [4] was greater than 178000 nM. For the same compound, the “intrinsic CL in microsomes, CLint(mic)” value [5] was 143.4 mL/min/kg, the “% Infection Early Stage” value (HIV-1 [6]) was 0.092 ± 0.013% and the “% Infection Late Stage” value (HIV-1 [6]) was 0.019 ± 0.002%. The IC50 [7] was 189 ± 89.8 nM, the “p24 content of the produced virus” value [8] was “did not change significantly” and the “SI ROD (CC50/EC50)” value (HIV-2 ROD; HIV-2 ROD, MT-4 cells) was greater than 1736.11. For the same compound, the “fold improvement of anti-HIV-2 potency over PF74” value (HIV-2 ROD; HIV-2 ROD, MT-4 cells) was “approximately 40 fold”, the EC50 (HIV-2 ROD) was 100 ± 10 nM and the CLint scaled (in vitro [9]) was 129 mL/min/kg. The half-life (in vitro [9]) was 9.7 min, the microsomal CLint (in vitro [9]) was 143 µL/min/mg and the remaining at 1 h (in vitro [9]; % Remaining (NCF = 60 min)) was 107%. The remaining at 1 h (in vitro [9]; % Remaining (T = 60 min)) was 1.1%, the “effect on CA assembly” value (HIV-1 CA-NC) was “enhance CA assembly” and the “fold improvement of anti-HIV-1 potency over 11L” value (HIV-1 IIIB) was 2.5 fold. For the same compound, the “fold improvement of anti-HIV-1 potency over PF74” value (HIV-1 IIIB) was 7.3 fold, the EC50 (HIV-1 IIIB) was 110 ± 30 nM and the “Ratio IIIB(EC50)/ROD(EC50)” value (HIV-1 IIIB) was 1.10. For the same compound, the “Ratio KD Monomer/KD Hexamer” value [10] was 1.490, the “fold increase in affinity toward the CA hexamer compared to 11L” value [11] was 2 fold and the “Residence Time Hexamer” value [11] was 0.321 min. The “koff Hexamer” value [11] was 0.052 ± 0.005 s⁻¹ and the Kd [11] was 561 ± 31 nM.
For Nc1ccc(S(=O)(=O)N2CCN(CC(=O)N[C@@H](Cc3cc(F)cc(F)c3)c3nc4ccccc4c(=O)n3-c3ccc(S(=O)(=O)N4CCOCC4)cc3)C(=O)C2)cc1 [21a2, (S)-2-(4-((4-Aminophenyl)sulfonyl)-2-oxopiperazin-1-yl)-N-(2-(3,5-difluorophenyl)-1-(3-(4-(morpholinosulfonyl)phenyl)-4-oxo-3,4-dihydroquinazolin-2-yl)ethyl)acetamide], the Kd [1] was 244 ± 37 nM, the “Residence Time Monomer” value [1] was 0.417 min and the “koff Monomer” value [1] was 0.040 ± 0.007 s⁻¹. For the same compound, the “RT activity compared to RT control” value [2] was “about 80%”, the remaining at 2 h (in vitro [3]) was 102% and the CC50 [4] was greater than 152000 nM. The “intrinsic CL in microsomes, CLint(mic)” value [5] was 312.7 mL/min/kg, the “% Infection Early Stage” value (HIV-1 [6]) was 0.109 ± 0.046% and the “% Infection Late Stage” value (HIV-1 [6]) was 0.017 ± 0.003%. It also gave an AUC ([12]; iv, 2 mg/kg) of 574 ± 151 ng·h/mL, an AUC(0-t) ([12]; iv, 2 mg/kg) of 572 ± 151 ng·h/mL and a C0 ([12]; iv, 2 mg/kg) of 2980 ± 545 ng/mL. The Cmax ([12]; iv, 2 mg/kg) was 1650 ± 361 ng/mL, the MRT ([12]; iv, 2 mg/kg) was 17 ± 2.81 min and the Tmax ([12]; iv, 2 mg/kg) was 4.98 min. The Vd ([12]; iv, 2 mg/kg) was 2.58 ± 0.707 L/kg, the half-life ([12]; iv, 2 mg/kg) was 30.8 ± 10.6 min and the clearance ([12]; iv, 2 mg/kg, CL (i.v.), SD rat, i.v. 2 mg/kg) was 60.5 mL/min/kg. It also gave an AUC ([12]; po, 20 mg/kg) of 37.3 ng·h/mL, an AUC(0-t) ([12]; po, 20 mg/kg) of 10.8 ± 17.4 ng·h/mL and a Cmax ([12]; po, 20 mg/kg) of 6.58 ± 8.24 ng/mL. It also gave an MRT ([12]; po, 20 mg/kg) of 182 min, a Tmax ([12]; po, 20 mg/kg) of 20 ± 8.64 min and a half-life ([12]; po, 20 mg/kg) of 121 min. For the same compound, the IC50 [7] was 163 ± 47.1 nM, the “p24 content of the produced virus” value [8] was “did not change significantly” and the “SI ROD (CC50/EC50)” value (HIV-2 ROD; HIV-2 ROD, MT-4 cells) was greater than 1923.08. The EC50 (HIV-2 ROD) was 80 ± 10 nM, the CLint scaled (in vitro [9]) was 282 mL/min/kg and the half-life (in vitro [9]) was 4.4 min. It also gave a microsomal CLint (in vitro [9]) of 313 µL/min/mg, a remaining at 1 h (in vitro [9]; % Remaining (NCF = 60 min)) of 94.4% and a remaining at 1 h (in vitro [9]; % Remaining (T = 60 min)) of 0.2%. For the same compound, the “effect on CA assembly” value (HIV-1 CA-NC) was “enhance CA assembly”, the “SI IIIB (CC50/EC50)” value (HIV-1 IIIB) was greater than 1329.79 and the “fold improvement of anti-HIV-1 potency over 11L” value (HIV-1 IIIB) was 2.5 fold. The “fold improvement of anti-HIV-1 potency over PF74” value (HIV-1 IIIB) was 7.3 fold, the EC50 (HIV-1 IIIB) was 110 ± 50 nM and the “Ratio IIIB(EC50)/ROD(EC50)” value (HIV-1 IIIB) was 1.38. For the same compound, the “Ratio KD Monomer/KD Hexamer” value [10] was 1.230, the “Residence Time Hexamer” value [11] was 1.389 min and the “koff Hexamer” value [11] was 0.012 ± 0.000 s⁻¹. For the same compound, the Kd [11] was 199 ± 19 nM.
Work on COc1ccc(N(C)C(=O)[C@H](Cc2ccccc2)NC(=O)CN2CCN(S(=O)(=O)c3ccc(N)cc3)CC2=O)cc1 [11L, reference compound] yielded a CC50 [4] of 198000 ± 6850 nM and an EC50 (HIV-1 IIIB) of 280 ± 90 nM.
With COc1ccc(N(C)C(=O)[C@H](Cc2ccccc2)NC(=O)Cc2c(C)[nH]c3ccccc23)cc1 [PF74, reference compound] the “Residence Time Monomer” value [1] was 0.011 min, the CC50 [4] was greater than 294000 nM and the “SI ROD (CC50/EC50)” value (HIV-2 ROD; HIV-2 ROD, MT-4 cells) was greater than 77.64. The EC50 (HIV-2 ROD) was 3780 ± 380 nM, the CLint scaled at 1 h, 1 µM (in vitro [9]) was 1900 mL/min/kg and the EC50 (HIV-1 [13]) was 870 nM. For the same compound, the “SI IIIB (CC50/EC50)” value (HIV-1 IIIB) was greater than 367.65 and the “Residence Time Hexamer” value [11] was 0.463 min.
Compound C[C@]12CC[C@H]3[C@@H](CCC4=CC(=O)CC[C@@]43C)[C@@H]1CC[C@@H]2O [Testosterone, testosterone] has a remaining at 1 h, 1 µM [14] of 95.8%.

— publication PMC10790229 (Journal of medicinal chemistry, 2023)
